The assay relates to hexokinase from Saccharomyces cerevisiae. Kind of assay: initial rates of ADP generation monitored with 5-ATR-ParM biosensor. In kind it is biochemical. The conditions noted are these: read-out: KM^glucose; 1 mM ATP, 50 mM Tris-HCl pH 7.5, 25 mM KCl, 10 mM MgCl2, 20 °C.

This is an account of results in paper PMC2855616 (ACS Chemical Biology, 2010).

The Km is the substrate concentration at which the rate is half of its maximum. In the case of `OC[C@H]1OC(O)[C@H](O)[C@@H](O)[C@@H]1O` (stereo partly drawn) [D-glucose], the Km worked out at 180 ± 9 µM.
